According to PMC10053440, “Semi-Synthesis and Biological Evaluation of 25(R)-26-Acetoxy-3β,5α-Dihydroxycholest-6-One” (Marine Drugs, 2023):
In brackets after ≈: the same amount, converted by molar mass.

Experiments:
[1] = system: respiratory syncytial virus (RSV); test: Anti-RSV activity assay (RT-qPCR); format: cell-based; conditions: human respiratory syncytial virus, HEp-2 cells, mean ± SEM, read-out: Inhibition rate (%) of RSV replication
Text: Remdesivir was selected and evaluated as a positive control.

[2] = system: human leukemia cell line K-562; conditions: cited from earlier work
[3] = system: K-562 (human myeloid leukemia cell); test: CCK-8 anti-proliferation assay, K-562; format: cell-based; conditions: 48 h, mean ± SEM
Experimental: (§1) One concentration was set for each sample during preliminary screening and three multiple holes were set for each concentration. Eight concentration gradients were set for each sample for IC50 determination and three multiple holes were set for each concentration. […] The absorbance was measured at 450 nm with an enzyme labeling instrument and the original data and results were recorded. […] Doxorubicin was used as a positive control. All the cancer cell lines were obtained from Qingdao AC biotechnology Co., LTD, Qingdao, China.

[4] = system: A549 (human lung adenocarcinoma cell); test: CCK-8 anti-proliferation assay, A549; format: cell-based; conditions: A549, 48 h, at 20 µM, mean ± SEM, read-out: Inhibition Rate (%)
Experimental: as §1

[5] = system: MKN-45 (human gastric cancer cell); test: CCK-8 anti-proliferation assay, MKN-45; format: cell-based; conditions: at 20 µM, 48 h, mean ± SEM, read-out: Inhibition Rate (%)
Experimental: as §1

[6] = system: HCT 116 (human colorectal cancer cell); test: CCK-8 anti-proliferation assay, HCT 116; format: cell-based; conditions: at 20 µM, 48 h, mean ± SEM, read-out: Inhibition Rate (%)
Experimental: as §1

[7] = system: HeLa (human cervical cancer cell); test: CCK-8 anti-proliferation assay, HeLa; format: cell-based; conditions: at 20 µM, 48 h, mean ± SEM, read-out: Inhibition Rate (%)
Experimental: as §1

[8] = system: 786-O (human renal cancer cell); test: CCK-8 anti-proliferation assay, 786-O; format: cell-based; conditions: 786-0, at 20 µM, 48 h, mean ± SEM, read-out: Inhibition Rate (%)
Experimental: as §1

[9] = system: TE-1 (human esophageal cancer cell); test: CCK-8 anti-proliferation assay, TE-1; format: cell-based; conditions: at 20 µM, 48 h, mean ± SEM, read-out: Inhibition Rate (%)
Experimental: as §1

[10] = system: 5637 (HTB-9) (human bladder cancer cell); test: CCK-8 anti-proliferation assay, 5637 (HTB-9); format: cell-based
Experimental: as §1

[11] = system: GBC-SD (human gallbladder carcinoma cell); test: CCK-8 anti-proliferation assay, GBC-SD; format: cell-based; conditions: at 20 µM, 48 h, mean ± SEM, read-out: Inhibition Rate (%)
Experimental: as §1

[12] = system: L-02 (human hepatocyte cell); test: CCK-8 anti-proliferation assay, L-02; format: cell-based; conditions: L-02 normal liver cells, at 20 µM, 48 h, mean ± SEM, read-out: Inhibition Rate (%)
Experimental: as §1

[13] = system: MCF7 (human breast cancer cell); test: CCK-8 anti-proliferation assay, MCF7; format: cell-based; conditions: at 20 µM, 48 h, mean ± SEM, read-out: Inhibition Rate (%)
Experimental: as §1

[14] = system: HepG2 (human liver carcinoma cell); test: CCK-8 anti-proliferation assay, HepG2; format: cell-based
Experimental: as §1

[15] = system: SF126 (human glioblastoma cell); test: CCK-8 anti-proliferation assay, SF126; format: cell-based; conditions: SF-126, at 20 µM, 48 h, mean ± SEM, read-out: Inhibition Rate (%)
Experimental: as §1

[16] = system: DU145 (human prostate carcinoma cell); test: CCK-8 anti-proliferation assay, DU145; format: cell-based; conditions: DU-145, at 20 µM, 48 h, mean ± SEM, read-out: Inhibition Rate (%)
Experimental: as §1

[17] = system: CAL-62 (human thyroid anaplastic carcinoma cell); test: CCK-8 anti-proliferation assay, CAL-62; format: cell-based; conditions: at 20 µM, 48 h, mean ± SEM, read-out: Inhibition Rate (%)
Experimental: as §1

[18] = system: PATU8988T (human pancreatic cancer cell); test: CCK-8 anti-proliferation assay, PATU8988T; format: cell-based; conditions: PaTu 8988t, at 20 µM, 48 h, mean ± SEM, read-out: Inhibition Rate (%)
Experimental: as §1

[19] = system: HOS (human osteosarcoma cell); test: CCK-8 anti-proliferation assay, HOS; format: cell-based; conditions: at 20 µM, 48 h, mean ± SEM, read-out: Inhibition Rate (%)
Experimental: as §1

[20] = system: A-375 (human melanoma cell); test: CCK-8 anti-proliferation assay, A-375; format: cell-based; conditions: at 20 µM, 48 h, mean ± SEM, read-out: Inhibition Rate (%)
Experimental: as §1

A-673 (Ewing sarcoma) = test: CCK-8 anti-proliferation assay, A-673; format: cell-based; conditions: Homo sapiens, A673, at 20 µM, 48 h, mean ± SEM, read-out: Inhibition Rate (%)
Experimental: as §1

[21] = system: 293T (human embryonic kidney cell); test: CCK-8 anti-proliferation assay, 293T; format: cell-based; conditions: HEK-293T, at 20 µM, 48 h, mean ± SEM, read-out: Inhibition Rate (%)
Experimental: as §1

5637 (HTB-9) cells = test: Apoptosis assay, Annexin V-FITC/PI flow cytometry; format: cell-based, human; conditions: 48 h
Experimental: Next, the apoptosis study of compound ([…])-5 was investigated against 5637 (HTB-9) cells based on a standard flow cytometry technique and assessed by Annexin V-FITC/PI staining. […] The percent of apoptosis in cells was assayed according to the instructions (Vazyme, A211). 5637 (HTB-9) cells were seeded in 6-well plates at 2 × 10^5 cells/well overnight and treated with compound ([…])-5 at various concentrations for 48 h. Trypsinization of the cells occurred without EDTA and they were collected in tubes and suspended in 100 μL ice-cold 1 × binding buffer after being washed twice with PBS. Cells were stained with PI and FITC Annexin V for 10 min at room temperature following the instructions of the Annexin V FITC/PI kit (Vazyme Biotech, Nanjing, China). Next, 200 μL ice-cold 1 × binding buffer was added. The result was measured by flow cytometry (MoFlo XDP, Beckman, Pasadena, CA, USA). For each condition, a minimum of 10,000 cells were analyzed. Triplicate experiments were performed independently.

## CC(=O)OCC(C)CCC[C@@H](C)[C@H]1CC[C@H]2[C@@H]3CC(=O)[C@@]4(O)C[C@@H](O)CC[C@]4(C)[C@H]3CC[C@]12C (stereo partly drawn) [compound 5]
[1]
  inhibition at 10 µM: 18.3 ± 3.8%
[2]
  LC50: 0.9 µg/mL (≈ 1.89 µM)

## CC(=O)OC[C@H](C)CCC[C@@H](C)[C@H]1CC[C@H]2[C@@H]3CC(=O)[C@@]4(O)C[C@@H](O)CC[C@]4(C)[C@H]3CC[C@]12C [compound (25R)-5, (2R,6R)-6-((3S,5R,8S,9S,10R,13R,14S,17R)-3,5-Dihydroxy-10,13-Dimethyl-6-Oxohexadecahydro-1H-Cyclopenta[a]Phenanthren-17-yl)-2-Methylheptyl Acetate]
[1]
  inhibition at 10 µM: 29.4 ± 7.1%
[3]; Homo sapiens, K562, at 20 µM, read-out: Inhibition Rate (%)
  inhibition at 20 µM: 17.1 ± 2.8%
[3]; at 20 µM
  Inhibition Rate (%): weak inhibition activity
[4]
  inhibition at 20 µM: ≤ 50%
[5]
  inhibition at 20 µM: 61.1 ± 1.4%
[6]
  inhibition at 20 µM: 59.3 ± 3.8%
[7]
  inhibition at 20 µM: 22.7 ± 1.2%
[8]
  inhibition at 20 µM: 65.3 ± 0.5%
[9]
  inhibition at 20 µM: 29.5 ± 2.2%
[10]; 5637 (HTB-9), at 20 µM, 48 h, mean ± SEM, read-out: Inhibition Rate (%)
  inhibition at 20 µM: 64.7 ± 3.4%
[10]; CCK-8, 48 h, read-out: IC50 against 5637 (HTB-9) cells
  IC50: 4.8 µM
[11]
  inhibition at 20 µM: 28.1 ± 1.5%
[12]
  inhibition at 20 µM: -4.9 ± 3.4%
[13]
  inhibition at 20 µM: 19.3 ± 2.1%
[14]; CCK-8, 48 h, read-out: IC50 against HepG2 cells
  IC50: 15.5 µM
[14]; at 20 µM, 48 h, mean ± SEM, read-out: Inhibition Rate (%)
  inhibition at 20 µM: 66.8 ± 2.1%
[15]
  inhibition at 20 µM: 28.1 ± 0.5%
[16]
  inhibition at 20 µM: 12.2 ± 2%
[17]
  inhibition at 20 µM: 18.2 ± 1.9%
[18]
  inhibition at 20 µM: 65.9 ± 4.2%
[19]
  inhibition at 20 µM: 22.2 ± 1.1%
[20]
  inhibition at 20 µM: 76.3 ± 1.7%
A-673 (Ewing sarcoma)
  inhibition at 20 µM: 49.4 ± 1.4%
[21]
  inhibition at 20 µM: 26.2 ± 1.5%
5637 (HTB-9) cells
  induction of apoptosis (early-stage Annexin V-FITC+/PI- and late-stage Annexin V-FITC+/PI+): induced apoptotic cell death in a dose-dependent manner
